Results as given in patent US4182878A, “1-Phenyl-1H-pyrazolo[3,4-d]pyrimidine-4-carbonitrile and a method for its preparation” (The Lion Dentrifice Co., Ltd., priority 1977, dated 1980).

Legend:
[1] = Stability of the compound; format: physicochemical
Ehrlich's tumor cells = assay: Carcinostatic activity in ddY mice subcutaneously inoculated with Ehrlich's tumor cells; format: in vivo; details: for Weight of tumor tissues in the sample group (S) / Ratio of S/C: 14 days after inoculation; for Weight of tumor tissues in the sample group (S) / Toxicity, ratio of died mice / Ratio of S/C: 1 mg daily intraabdominal injection; for Weight of tumor tissues in the sample group (S) / Toxicity, ratio of died mice: dosage period 10 days (I, IV) or 7 days (XI, VI, X); for Evaluation: based on the ratios of S/C in percentages; for effectiveness in preventing the multiplication of cancer cells: conclusion in words from the table; for Toxicity, ratio of died mice: number of mice died in the group during 14 days after transplantation; for Ratio of S/C: tumor weight sample/control, control 4.44 ± 1.02 g (I, IV), 1.36 ± 0.15 g (XI, VI), 1.52 ± 0.27 g (X)
Method: In addition to the foregoing examples of preparation processes, Compounds I, IV, VI, X and XI were evaluated with respect to their carcinostatic activities and acute toxicities by animal tests as follows.
Each of mice (ddY) having a body weight of about 25 g was subcutaneously innoculated with 3×10^6 of Ehrlich's tumor cells, and the thus inoculated mice were divided into 5 "sample" groups and 3 "control" groups, each group consisting of five or four mice. The thus treated mice belonging to the control groups were observed over a period of 14 days. On the other hand, each mouse belonging to the sample groups was given a 1 mg dose of Compounds I, IV, VI, XI or X by injection into the abdominal coelom every day during the period beginning after 24 hours from the innoculation of the tumor cells, and as indicated in the table below.
At the end of the 14-day period following the above-mentioned innoculation of the tumor cells, the tumor tissues of each mouse were taken out and weighed, so that comparison could be made between the weights of the tumor tissues taken from the sample groups and the control groups. Further in the table, "Toxicity" is expressed by the number of mice died in the group during the 14-day period following the transplantation of the cancer cells and "Evaluation" is based on the ratios of S/C in percentages and expressed by "++" when the percentage is 0-25%, "+" when the percentage is 26-50%, and "±" when the percentage is 51-75%.

[2] = Acute toxicity, LD50 by oral administration; details: in vivo, mouse

| Compound | stability [1] | Weight of tumor tissues in the sample group (S) (Ehrlich's tumor cells) | Evaluation (Ehrlich's tumor cells) | effectiveness in preventing the multiplication of cancer cells (Ehrlich's tumor cells) | Toxicity, ratio of died mice (Ehrlich's tumor cells) | Ratio of S/C (Ehrlich's tumor cells) | LD50 [2] |
| --- | --- | --- | --- | --- | --- | --- | --- |
| N#Cc1ncnc2c1cnn2-c1ccccc1 [Compound I, 1-phenyl-1H-pyrazolo[3,4-d]pyrimidine-4-carbonitrile] | stable | 0.43 ± 0.40 g | ++ (the percentage is 0-25%) | very effective in preventing the multiplication of cancer cells | 1/5 | 9.7% | 100 mg/kg |
| NC(=O)c1ncnc2c1cnn2-c1ccccc1 [Compound IV, 1-phenyl-1H-pyrazolo[3,4-d]pyrimidine-4-carboxamide] | – | 3.05 ± 1.40 g | ± (the percentage is 51-75%) | effective in preventing the multiplication of cancer cells | 0/5 | 68.7% | – |
| NC(=NO)c1ncnc2c1cnn2-c1ccccc1 [Compound VI, 1-phenyl-1H-pyrazolo[3,4-d]pyrimidine-4-carboxamidoxime] | – | 0.43 ± 0.15 g | + (the percentage is 26-50%) | effective in preventing the multiplication of cancer cells | 0/4 | 31.6% | – |
| O=C(O)c1ncnc2c1cnn2-c1ccccc1 [Compound X, 1-phenyl-1H-pyrazolo[3,4-d]pyrimidine-4-carboxylic acid] | – | 1.14 ± 0.27 g | ± (the percentage is 51-75%) | effective in preventing the multiplication of cancer cells | 0/4 | 75.0% | – |
| NC(=S)c1ncnc2c1cnn2-c1ccccc1 [Compound XI, 1-phenyl-1H-pyrazolo[3,4-d]pyrimidine-4-thiocarboxamide] | – | 0.63 ± 0.08 g | + (the percentage is 26-50%) | effective in preventing the multiplication of cancer cells | 0/4 | 46.3% | – |
